Measurements published in US8523975B2, “Salts of mineral nutrients stabilized with amino acids and/or ammonium salt, products and food supplements that contain them and procedures for obtaining same” (priority 2005, dated 2013).

Assays:
[1] = Comparative data of solubility in water; settings: 25° C., solubility expressed as iron
[2] = reference data (Merck Index XII / manufacturer Bartek Inc.); cited from earlier work

| Compound | Fe++ (ferrous) allowed per liter of water [1] | Solubility in water at 25° C. (non-stabilized salt) [2] [grams per liter] |
| --- | --- | --- |
| O=C([O-])/C=C/C(=O)[O-].[Fe+2] [Ferrous fumarate] | 0.460 gr Fe++ per liter of water | 1.4 |
| O.O.O.O=C([O-])/C=C/C(=O)[O-].[Ca+2] [Calcium Fumarate 3H2O] | – | 1.22 |
